Here are results for 112 compounds from a melting point compilation (Tetko et al.).

SMILES strings stand for the structures.

Broadly, the melting point is the temperature, or range, at which the solid turns liquid. `COC(=O)/C(=C/c1ccccc1)Cc1ccccc1` yielded a melting point of 27 to 28 °C. The same measure for `O=C(O)c1cc(Br)cnc1Br`: 184 to 185 °C. In the case of `NC(=O)c1ccc(-c2ccccn2)s1`, the melting point lay within 197 to 199 °C. In turn, `O=C(Cl)c1cccnc1Sc1ccccc1` came in with a melting point of 71 to 74 °C. The compound `CCCOc1ccc([N+](=O)[O-])cc1N` came in with a melting point of 49 °C.

On to `CCCCCCc1ccc2c(c1)CCC2`, for which the melting point was -34 °C.

Turning to `CC(=CNNc1nc(C)cc(C)n1)c1ccccn1`, the melting point was in the range of 142 to 145 °C. As to `O=[N+]([O-])c1ccc(Sc2ccccc2)cc1`, the melting point stood at 56 °C.

As to `C1CC12CC2`, the melting point was -135 °C.

`FC(Cl)C(F)Cl` (configuration not stated) came in with a melting point of -101 °C. In turn, `CCc1ccc(-c2ccccc2)cc1` registered a melting point of 35 °C. As to `NS(=O)(=O)c1ccc(SCCCCO)c(F)c1`, the melting point came to 104 °C. `CC(=O)NC1=NC(=O)C(=Cc2cc(=O)c3ccccc3o2)N1C` gave a melting point of 244 to 246 °C.

For the compound `NC1CCCCCCC1`, the melting point is -48 °C. In the case of `N#C/C(=C/c1ccc(F)cc1)c1nc(-c2ccc(Cl)cc2)cs1`, the melting point was 184 °C. Regarding `O=C(CBr)c1ccc(OC(F)(F)F)cc1`, the melting point fell in the range of 55 to 58 °C. On to `O=C(NCCCCO)OCC1c2ccccc2-c2ccccc21`, for which the melting point was in the range of 115 to 117 °C. `CC(CC(=O)O)c1ccc(C(=O)O)cc1` (configuration not stated) registered a melting point of 227 to 229 °C. For `C1=CC2OC1c1ccccc12`, the melting point fell in the range of 53 to 58 °C.

For the compound `Nc1ncnc2c1ncn2C1OC2COP(=O)(O)OC2C1O` (configuration not stated), the melting point turned out to be 260 °C. In turn, `COC(=O)c1ccc(C)c(Cl)c1` showed a melting point of 29 °C.

On to `O=C(O)c1sccc1C1OCCO1`, for which the melting point was 142 to 144 °C. For the compound `CC(C)Cc1ccc(C(C)C(=O)NN)cc1` (configuration not stated), the melting point lay in the range of 76 to 78 °C. The result for `OC(c1ccccc1)P(c1ccccc1)c1ccccc1` (configuration not stated) reads 157 °C. In turn, `Cc1cc(S(=O)(=O)Cl)ccc1Br` yielded a melting point of 59 °C. In turn, `Cn1c(/C(C#N)=N/Nc2ccc(Cl)cc2Cl)nc2ccccc21` returned a melting point of 160 °C.

With `COC(=O)CCC(C)C1CCC2C3CCC4CC(OC(C)=O)CCC4(C)C3CC(OC(C)=O)C12C` (configuration not stated), the melting point worked out at 116 °C. Consider `CC(O)C(N)CO` (configuration not stated), for which the melting point was in the range of 54 to 57 °C. Take `O=C1CCCc2c1nc(-c1ccccc1)n2O`: the melting point was in the range of 247 to 257 °C. `CC(C)COC(=O)c1ccc(O)cc1` showed a melting point of 76 °C. `Cc1cc(Cl)cc(C=O)c1O` displayed a melting point of 67 to 68 °C. Compound `CC(C)(O)C(Cl)(Cl)Cl` gave a melting point of 97 °C. In turn, `N#Cc1c(-c2ccc(F)cc2)c(C#N)c(=O)n(N)c1N` gave a melting point of 304 °C. `CC1(C)C(=O)OC2=C(CC3C4CC=C5CC(O)CCC5(C)C4CCC23C)C1c1ccccc1` (configuration not stated) came in with a melting point of 230 to 235 °C. The compound `OCCNC(=S)C(=S)NCCO` returned a melting point of 93.3 °C. As to `Cn1ccc2cc(N=C=O)ccc21`, the melting point lay in the range of 42.5 to 44.5 °C. On to `CC[C@H](C)[C@H](NC(=O)OC(C)(C)C)C(=O)O`, for which the melting point worked out at 69 °C. The compound `c1ccc(CC(=NNc2ccccc2)/C(Cc2ccccc2)=N\Nc2ccccc2)cc1` showed a melting point of 181 °C. Take `O=C(O)c1[nH]c2ccc([N+](=O)[O-])cc2c1-c1ccccc1`: the melting point amounted to 290 °C. For `Cc1cccc([N+](=O)[O-])c1O`, the melting point is 70 °C. For `O=C1OS(=O)(=O)c2c(Br)c(Br)c(Br)c(Br)c21`, the melting point lay in the range of 215 to 220 °C. For the compound `CC(=O)NC(C(=O)O)c1ccccc1` (configuration not stated), the melting point is 197 to 201 °C. The compound `Cc1cc(Oc2ccc(C(N)=NO)cc2[N+](=O)[O-])cc(C)c1Cl` showed a melting point of 183 to 185 °C. In turn, `O=Cc1coc2ccc(Cl)cc2c1=O` had a melting point of 162 to 168 °C.

Consider `O=C(O)c1cccc2c1Cc1ccccc1-2`, for which the melting point was 247 °C. `O=C1NN=C(C(F)(F)F)C1=NNc1cc(-c2ccccc2)n[nH]1` yielded a melting point of 271 °C. The result for `CSC(=CC(=C(C#N)C#N)c1ccc(Br)cc1)SC` reads 138 to 142 °C; that for `Nc1nc(-c2ccc(Br)cc2)cc(C(F)(F)F)n1`, 216 to 218 °C; that for `CN(C)[Si](C)(N(C)C)N(C)C`, -11 °C. The result for `O=S(=O)(Cl)Cc1ccc(Br)cc1` reads 117 to 121 °C. On to `Cc1ccc([N+](=O)[O-])cc1O`, for which the melting point turned out to be 118 °C. Turning to `COc1ccc(C=C(Oc2ccc(Cl)cc2)c2nc3ccccc3s2)cc1`, the melting point lay in the range of 137 to 139 °C. `O=C(O)CN1CCOCCOCCN(CC(=O)O)CCOCCOCC1` gave a melting point of 173 to 175 °C. For `CC(=O)Nc1ccccc1-c1onc(-c2ccccc2)c1-c1ccccc1`, the melting point turned out to be 190 °C. The same measure for `Cc1oc(-c2ccccc2)nc1CC(=O)O`: 131 to 133 °C.

For the compound `CSc1nc(N)nc(-c2cnccn2)n1`, the melting point was 215 °C. The result for `CCOC(=O)C(C)C(O)(c1ccccc1)c1ccccc1` (configuration not stated) reads 102 °C. As to `CC(NC(=O)CCCCNC(=O)C12CC3CC(CC(C3)C1)C2)[P+]([O-])(Oc1ccccc1)Oc1ccccc1` (configuration not stated), the melting point was determined as 150 °C.

Turning to `COC(=O)c1ccnnc1`, the melting point turned out to be 66 °C. Compound `Oc1cc(O)cc(-c2cc(O)cc(O)c2)c1` came in with a melting point of 310 °C. The compound `Cn1nccc1-c1cccc(C(=O)O)c1` displayed a melting point of 138 to 140 °C. The same measure for `CCOC(=O)c1csc(NC(=O)CCl)n1`: 208 to 210 °C; for `Cc1ccncc1C#N`: 43 °C; for `NC1=NCC(c2ccccc2)O1` (configuration not stated): 136 °C.

As for `CCCCCCCCCCCCc1ccccc1`, the melting point worked out at 3 °C. The result for `Cc1nc2ccccc2o1` reads 9.5 °C; that for `CCOC(=O)C(Cl)(Cc1cc(CC(Cl)(C(=O)OCC)C(=O)OCC)c([N+](=O)[O-])cc1[N+](=O)[O-])C(=O)OCC`, 146 °C.

As for `CC1CN2CC(=O)Nc3ccc(Cl)cc3C2(c2ccccc2)O1` (configuration not stated), the melting point is 186 °C.

Compound `CCN(CC)C(C)O` (configuration not stated) came in with a melting point of -70 °C. `C[C@@H]1C(=O)[C@]23C[C@H]1CC[C@H]2[C@@]1(CCC[C@@]2(C)COC(=O)[C@H]21)COC3=O` returned a melting point of 297 °C. Consider `Cc1c(N)cccc1N`, for which the melting point was 106 °C. For `CC1=CCC(C(=O)O)C1(C)C` (configuration not stated), the melting point is 40.5 °C. Compound `C=CC(=O)OCCOCC` returned a melting point of -47 °C. For `O=C(O)c1cc(F)c(F)cc1[N+](=O)[O-]`, the melting point amounted to 165 °C. Consider `Brc1ccc2[nH]ccc2c1`, for which the melting point was 91 °C.

Take `Nc1ccncc1[N+](=O)[O-]`: the melting point worked out at 203 °C. As for `CSc1nc(N)c(C(N)=O)s1`, the melting point fell in the range of 199 to 200 °C. Regarding `c1ccc2c(c1)Cc1c-2ccc2ccccc12`, the melting point came out at 190 °C. The result for `O=C(O)CCCc1ccc2c(c1)OCCO2` reads 76 to 78 °C; that for `OCc1ccccc1Cc1ccccc1`, 37 to 41 °C. `N#CC1(C#N)C2O[C@H](c3ccccc3)[C@@H](C3=C2CCCC3)C1(C#N)C#N`: the melting point is 168 °C.

Compound `COC(=O)CS` came in with a melting point of -3 °C. The compound `O=C1CCCCCCCCC1O` (configuration not stated) yielded a melting point of 42 °C. On to `CC1(CO)CN(c2ccccc2)NC1=O` (configuration not stated), for which the melting point came out at 125 °C. The same measure for `Clc1ccccc1-c1nc2ccccc2[nH]1`: 234 °C; for `O=C(O)C1(C(=O)Nc2ccc(Cl)cc2Cl)CC1`: 195 °C; for `CSc1ncnc2c1cnn2-c1ccccc1`: 115 to 117 °C.

Regarding `O=[N+]([O-])C=Cc1ccc2c(c1)OCO2`, the melting point lay within 159 to 163 °C. The same measure for `N#Cc1ccc(O)cc1F`: 125 °C; for `O=c1onc2cnc3ccccc3n12`: 160 to 170 °C; for `CC[C@H](CO)N1Cc2ccccc2C1`: 56 to 61 °C. For the compound `COC(=O)c1sc(-c2ccccc2)cc1N`, the melting point lay in the range of 147 to 149 °C. Regarding `Cc1ccc(/C=C(\C(N)=O)c2nc3ccccc3s2)cc1`, the melting point was determined as 148 °C. `Cc1cc(C(C)(C)c2ccc(O)c(C)c2)ccc1O` gave a melting point of 139 °C. The compound `COCC(CCC(=O)OC)N1CC=CC1` (configuration not stated) displayed a melting point of 144 to 146 °C. As to `O=S(=O)(Cl)c1ccc(-c2cnco2)cc1`, the melting point amounted to 101 °C.

Consider `NC(=O)Cc1nc(-c2ccccc2)cs1`, for which the melting point lay in the range of 193 to 194 °C. `Cc1cc(C(=O)CBr)ccc1Cl` came in with a melting point of 56 to 57 °C. `C=CCC(/C=C1\C(=O)C2(C)CCC1C2(C)C)(/C=C1\C(=O)C2(C)CCC1C2(C)C)C(=O)OCC` (configuration not stated) displayed a melting point of 148 °C. Regarding `COc1ccc(-c2ccc(S(=O)(=O)NC(Cc3ccccc3)C(=O)O)cc2)cc1` (configuration not stated), the melting point was 179 °C.

`O=C(Cl)c1cc2cc(Br)ccc2s1` had a melting point of 99 to 102 °C. Compound `CNC(=S)Nc1cc(OC)c(OC)cc1C(c1ccc(C)o1)c1ccc(C)o1` yielded a melting point of 165 °C. `Cc1ccc(NC(=O)C(C(F)(F)F)C(F)(F)F)c(C)c1` had a melting point of 193 °C. `O=C1OC(c2ccccc2)=N/C1=C/c1ccc(-c2ccccc2[N+](=O)[O-])o1`: the melting point turned out to be 210 °C. In turn, `N#CCc1cccc([N+](=O)[O-])c1` yielded a melting point of 63 °C.

Compound `O=C(Cl)c1cccnc1Oc1ccc(Cl)cc1` gave a melting point of 79 to 80 °C.

For the compound `C#CC(C)OC(=O)Nc1cccc(Cl)c1` (configuration not stated), the melting point is 45.5 °C.

For `O=S(=O)(Cl)c1cccc2nsnc12`, the melting point lay in the range of 148 to 150 °C.

In the case of `OCCCC1CCCCC1`, the melting point is -60 °C.

Regarding `CC(=O)OC1C2COC(O2)C(OC(C)=O)C1OC(C)=O` (configuration not stated), the melting point was 110 °C. For `N#CC(C#N)=Cc1sccc1C=O`, the melting point is 126 to 130 °C. The same measure for `Cc1ccc(C#N)cc1Br`: 41 °C.
